For assay [1], the target named is Taq polymerase (Thermus aquaticus, UniProt P19821). Type of assay: biochemical.
The target in assay [2] is T1, Ventr (exo-) polymerase (Thermococcus litoralis, UniProt P30317, D141A/DEL1082-1471/DEL495-1032/E143A).
T1 construct: purchased New England Biolabs
The format is biochemical. To be noted: for Amplification yield (% of C+): Ventr (exo-), 0.5 mM MnCl2. How it is done:
(§1) Control PCR condition: 2 units of Vent exo^−DNA polymerase were used in a 50 μL reaction volume containing 200 μM of each dNTPs, 10mM KCl, 10mM (NH4)2SO4, […] pH 8.8, 2mM MgSO4, 0.1% Triton™ X-100, 0.2 μM of each primers and 10ng of plasmid DNA. PCR were performed in a GeneAmp PCR system 9700 (Perkin-Elmer) as follows: 5 min at 95° C. (first denaturation), followed by 30 cycles of polymerisation [30 s at 95° C. (denaturation), 30 s at 65° C. (annealing) , 2 min at 72° C. (polymerisation)].
(§2) When a modified dNTPs ratio was used, fmal concentrations were 200 μM for dATP and dTTP and 800 μM for dCTP and dGTP.
Enzymatic activity of DNA polymerases has been determined by ethidium bromide staining of 1% agarose gel. Band intensity of 2 μL aliquots of amplicon issued from mutagenic PCR were compared to the intensity of bands obtained from several dilutions of standard PCR.
In order to assess the impact of the chemical stress induced by alcohols and urea on PCR, we measured the amplification yield was measured and compared it to that of a standard PCR. The size of a library generated by error-prone PCR is proportional to the amplification yield, therefore it is of a paramount importance to maintain the amplification yield as high as possible. Concentration of alcohol leading to a reduction in amplification yield was detected were chosen to determine their impact on amplified sequences. Such concentrations were defined as “critical” concentration of alcohol.

For assay [3], the target named is Deep Ventr (exo-) polymerase (Pyrococcus sp., UniProt Q51334, D141A/DEL493-1029/E143A). Type of assay: biochemical, Pyrococcus species GB-D.
Deep Ventr (exo-) polymerase, sequence (Q51334 other isoform, or with tags, fused parts or gaps D141A/E143A/DEL493-1029): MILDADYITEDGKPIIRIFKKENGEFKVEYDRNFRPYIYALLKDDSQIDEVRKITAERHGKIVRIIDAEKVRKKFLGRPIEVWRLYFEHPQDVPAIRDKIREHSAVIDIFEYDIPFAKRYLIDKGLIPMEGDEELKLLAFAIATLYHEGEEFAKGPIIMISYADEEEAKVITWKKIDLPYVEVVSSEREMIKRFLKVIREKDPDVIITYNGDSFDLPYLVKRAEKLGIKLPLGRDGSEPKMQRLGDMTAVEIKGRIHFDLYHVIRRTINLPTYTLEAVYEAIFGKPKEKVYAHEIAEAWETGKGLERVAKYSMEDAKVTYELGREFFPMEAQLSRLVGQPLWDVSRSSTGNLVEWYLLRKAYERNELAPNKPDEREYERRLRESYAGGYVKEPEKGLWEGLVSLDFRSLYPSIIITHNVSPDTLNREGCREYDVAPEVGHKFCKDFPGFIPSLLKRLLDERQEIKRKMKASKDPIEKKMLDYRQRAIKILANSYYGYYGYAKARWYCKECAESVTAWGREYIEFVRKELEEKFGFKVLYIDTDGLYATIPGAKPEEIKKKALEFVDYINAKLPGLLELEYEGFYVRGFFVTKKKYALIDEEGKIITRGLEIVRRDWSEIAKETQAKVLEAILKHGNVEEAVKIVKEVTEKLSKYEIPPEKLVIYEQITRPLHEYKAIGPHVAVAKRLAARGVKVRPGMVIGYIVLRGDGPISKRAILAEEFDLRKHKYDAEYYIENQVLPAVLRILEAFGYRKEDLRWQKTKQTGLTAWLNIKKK
The target of assay [4] is T2, Ventr (exo-) DNA polymerase (Thermococcus litoralis, UniProt P30317, D141A/DEL1082-1471/DEL495-1032/E143A).
T2 construct: purchased New England Biolabs
T2 sequence (P30317 other isoform, or with tags, fused parts or gaps D141A/E143A/DEL495-1032/DEL1082-1471): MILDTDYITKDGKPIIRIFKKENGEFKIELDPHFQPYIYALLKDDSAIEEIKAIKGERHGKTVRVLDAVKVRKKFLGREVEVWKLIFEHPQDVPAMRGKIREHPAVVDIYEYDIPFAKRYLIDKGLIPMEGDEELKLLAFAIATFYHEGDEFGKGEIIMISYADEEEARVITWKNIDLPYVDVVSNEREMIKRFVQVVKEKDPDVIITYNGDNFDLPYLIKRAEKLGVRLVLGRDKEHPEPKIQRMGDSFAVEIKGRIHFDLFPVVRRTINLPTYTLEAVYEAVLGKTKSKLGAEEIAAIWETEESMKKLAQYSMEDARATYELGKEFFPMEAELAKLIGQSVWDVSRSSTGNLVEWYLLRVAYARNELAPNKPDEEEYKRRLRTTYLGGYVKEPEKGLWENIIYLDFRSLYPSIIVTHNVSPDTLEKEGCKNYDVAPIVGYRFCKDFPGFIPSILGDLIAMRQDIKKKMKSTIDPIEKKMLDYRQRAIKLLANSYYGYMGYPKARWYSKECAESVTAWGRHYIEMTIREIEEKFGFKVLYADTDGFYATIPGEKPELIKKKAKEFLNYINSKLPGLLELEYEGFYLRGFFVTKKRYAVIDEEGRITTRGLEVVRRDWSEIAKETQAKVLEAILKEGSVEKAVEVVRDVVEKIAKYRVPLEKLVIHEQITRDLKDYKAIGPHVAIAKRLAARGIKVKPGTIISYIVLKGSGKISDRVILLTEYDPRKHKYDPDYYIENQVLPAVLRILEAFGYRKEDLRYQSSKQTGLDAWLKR
Type of assay: biochemical. Here is the method: The template used for PCR is the gene coding for MB-1 His (384 bp) (Grundy J. et al., (1998) Journal of Biotechnology, 63:9-15) cloned in the 6.6kb pMAL-c2 vector (New England Biolabs, cat no. M0257S). The template was obtained by plasmid purification of E. coli with XL-1 Blue (Stratagene) Miniprep protocol (Qiagen) and quantified using UV spectrometry.
as §1, §2
pMAL-c2 vector (New England Biolabs) was digested with SacI and HindIII endonucleases (New England Biolabs) and gel purified (1% agarose) using Qiaex gel extraction kit (Qiagen) and Agarose A from LAB MAT. The 384 bp PCR products were also gel purified. […] The purified products were then concatenated in a kination/ligation using T4 Polynucleotide kinase and T4 DNA ligase (New England Biolabs) for 3 hours at room temperature followed by a restriction digestion using SacI and HindIII endonucleases for 5 hours at 37° C. Then, the digested PCR products were purified using PCR purification kit (Qiagen) and ligated with pMAL-c2 vector using T4 DNA ligase at 16° C. overnight.
5 μL of ligation product mixed with 50 μL of E. coli XL-1 Blue hypercompetent cells were incubated on ice for 30 min, heatshocked at 42° C. for 45 sec and re-incubated on ice for 2 min. Then, 1mL of SOC medium was added and the mixture was incubated for 1 hour at 37° C. with shaking. Transformed Cells were then selected on LB agar plates containing 100 μg/mL ampicillin.
Plasmids from transformant colonies were purified with Qiaprep Spin miniprep kit (Qiagen) and digested with SacI/HindIII to confirm the presence of the 384 bp fragment corresponding to MB-1 His gene. Plasmids were then sequenced by the dye-terminator method (Service d'analyse et de synthèse, Université Laval). Complete sequences were analysed with LFASTA software (Chao K. M. (1998), Comput. Appl. Biosci., 8:481-487), allowing for comparison of control and mutated DNA. Mutation rate and mutation types were calculated from such a comparison.

Assay [5] addresses T3, Taq DNA polymerase (Thermus aquaticus, UniProt P19821). The format is biochemical.
Assay [6] deals with T2, Ventr (exo-) DNA polymerase. Kind of assay: PCR measuring maximal length of amplification. Type of assay: biochemical. Here is the method: (§3) 100ng of genomic DNA from Actinobacillus pleuropneumoniae was used as template. PCR cycles were as follows: 7 min at 95° C., then 30 cycles of polymerisation [45 s at 95° C., 45 s at 53° C., 1 min at 72°^C].
Assay [7] has as its target T3, Taq DNA polymerase. Particulars: 0.5 mM MnCl2, Equimolar dNTPs. Here is the method: as §3
Setting [8] is: concentration leading to reduction in amplification yield.
Setting [9] is: Taq, 0.5 mM MnCl2, Equimolar dNTPs.
The mark [10] stands for this setting: Ventr (exo-), 0.5 mM MnCl2, AG/CT = 1/4.
Setting [11] is: Ventr (exo-), 0.5 mM MnCl2, AG/CT = 1/4, % of total mutations.
The mark [12] stands for this setting: Ventr (exo-), 0.5 mM MnCl2, AT/GC = 1/4.
[13] abbreviates: Ventr (exo-), 0.5 mM MnCl2, AT/GC = 1/4, % of total mutations.
[14] abbreviates: Ventr (exo-), 0.5 mM MnCl2, Equimolar dNTPs.
The mark [15] stands for this setting: Ventr (exo-), 0.5 mM MnCl2, Equimolar dNTPs, % of total mutations.
The mark [16] stands for this setting: Ventr (exo-), 0.5 mM MnCl2, Equimolar dNTPs, listed as manganese.
Where [17] appears, read: Taq, 0.5 mM MnCl2, Equimolar dNTPs, % of total mutations.
[18] abbreviates: Taq polymerase, concentration leading to reduction in amplification yield.
The mark [19] stands for this setting: Ventr (exo-) polymerase, concentration leading to reduction in amplification yield.

Several values for one entry are separate records, joined by “and”; a condition that tells them apart may be missing. Equal entries are not always repeated. Where two headings read alike, the source gives them in different places.

T1 sequence (P30317 other isoform, or with tags, fused parts or gaps D141A/E143A/DEL495-1032/DEL1082-1471): as above
T3 sequence (P19821 whole entry): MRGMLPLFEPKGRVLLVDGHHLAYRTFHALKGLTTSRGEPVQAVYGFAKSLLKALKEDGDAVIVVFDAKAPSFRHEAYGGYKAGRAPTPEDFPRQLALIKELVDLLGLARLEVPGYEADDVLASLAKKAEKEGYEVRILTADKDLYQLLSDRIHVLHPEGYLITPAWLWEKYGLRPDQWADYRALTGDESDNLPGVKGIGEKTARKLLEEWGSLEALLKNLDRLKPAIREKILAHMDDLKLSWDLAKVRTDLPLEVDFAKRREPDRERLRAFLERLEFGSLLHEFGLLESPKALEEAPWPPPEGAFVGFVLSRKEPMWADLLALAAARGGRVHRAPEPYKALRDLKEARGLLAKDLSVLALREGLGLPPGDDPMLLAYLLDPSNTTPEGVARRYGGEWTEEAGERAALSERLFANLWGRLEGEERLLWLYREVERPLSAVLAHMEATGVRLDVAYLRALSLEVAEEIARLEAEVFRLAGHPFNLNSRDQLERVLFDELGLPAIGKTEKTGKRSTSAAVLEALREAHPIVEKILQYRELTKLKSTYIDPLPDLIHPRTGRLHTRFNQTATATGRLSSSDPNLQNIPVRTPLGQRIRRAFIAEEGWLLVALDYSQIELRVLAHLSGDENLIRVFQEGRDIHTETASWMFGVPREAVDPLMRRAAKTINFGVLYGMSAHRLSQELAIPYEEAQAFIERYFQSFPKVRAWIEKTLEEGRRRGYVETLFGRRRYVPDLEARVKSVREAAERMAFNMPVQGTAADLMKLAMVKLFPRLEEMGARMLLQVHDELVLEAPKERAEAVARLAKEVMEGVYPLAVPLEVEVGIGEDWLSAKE
Taq polymerase, sequence (P19821 whole entry): as above

Take `CCCO` [Propanol, 1-propanol]: in assay [1], the “Amplification yield (% of C+)” value was 50 % of C+, the Critical concentration came out at 2.5 % v/v and the polymerisation activity result is listed as “no polymerisation activity”. Also, in assay [2], the Critical concentration is reported as 8.0 % v/v and the polymerisation activity result is “no polymerisation activity”. The compound also came in with a Critical concentration in assay [3] (setting [8]) of 8.0 % v/v. Further, in assay [4], the “Bias indicator A, T turns N” value is 25% and 24% and 14%; the “Bias indicator G, C turns N” value was 67% and 62% and 86%; the “Bias indicator N turns A, T” value is 67% and 71%; the “Mutation Frequency” value is 0.98% and 0.27% and 0.58%. Moreover, the “mutation of guanines and cytosines, of total mutations” value in assay [4] amounted to 67%. In assay [5], the “Deletion Frequency” value was 0.04%, the “Mutation Frequency” value came out at 0.13% and the mutations found was determined as 3.
Consider manganese chloride [MnCl2], for which the “Amplification yield (% of C+)” value in assay [1] (setting [9]), in assay [2] (AG/CT = 1/4), in assay [2] (AT/GC = 1/4) and in assay [2] (Equimolar dNTPs) was 75 % of C+ throughout. For the same compound, the “Deletion Frequency” value is reported as 0.03% in assay [4] (setting [10]); 0.00% in assay [4] (setting [12]); 0.00% in assay [4] (setting [14]); “without insertion or deletion” in assay [4] (setting [16]); 0.04% in assay [5] (setting [9]). The “Mutation Frequency” value in assay [4] (setting [10]) is on record as 2.30%; in assay [4] (setting [12]), 0.52%; in assay [4] (setting [14]), 3.70%; in assay [4] (setting [16]), 3.7%; in assay [5] (setting [9]), 8.48%. In addition, the “Bias indicator A, T turns N” value in assay [4] (setting [11]) worked out at 30%; in assay [4] (setting [13]), 88%; in assay [4] (setting [15]), 23%; in assay [5] (setting [17]), 72%. For the same compound, the “Bias indicator G, C turns N” value is given as 67% in assay [4] (setting [11]), 12% in assay [4] (setting [13]), 77% in assay [4] (setting [15]) and 24% in assay [5] (setting [17]). Besides, the “Bias indicator N turns A, T” value in assay [4] (setting [11]) is 73%; in assay [4] (setting [13]), 25%; in assay [4] (setting [15]) it was 83%; in assay [5] (setting [17]) it was 43%. Further, the “Maximal lenght of amplification” value in assay [6] (0.5 mM MnCl2, AG/CT = 1/4) was 0.8 kb; in assay [6] (0.5 mM MnCl2, AT/GC = 1/4), 1.6 kb; in assay [6] (0.5 mM MnCl2, Equimolar dNTPs) it was 0.8 kb; in assay [7] it was 0.4 kb.
For the compound Butanol, the Critical concentration is given as 1.0 % v/v in assay [1] (setting [18]), 4.0 % v/v in assay [2] (setting [19]) and 6.0 % v/v in assay [3] (setting [8]).
As to `NC(N)=O` [Urea], the Critical concentration in assay [1] (setting [18]) was 1.2 % v/v; in assay [1] (Taq polymerase, in molar), “(0.20 M)”; in assay [2] (setting [19]), 1.5 % v/v; in assay [2] (Ventr (exo-) polymerase, in molar), “(0.25 M)”; in assay [3] (setting [8]), 1.5 % v/v; in assay [3] (in molar) it was “(0.25 M)”. For the same compound, the “mutation detected in PCR” value in assay [4] (Ventr (exo-), critical concentration of urea, more than 2000 nucleotides sequenced) is “did not detect mutation”; in assay [5] (Taq, critical concentration of urea, more than 2000 nucleotides sequenced), “did not detect mutation”.
In turn, `CC(C)O` [Isopropanol] registered a Critical concentration in assay [2] (setting [19]) of 10.0 % v/v.

Values taken from patent US20050153303A1, “Method of mutagenic chain reaction” (priority 2003, published 2005).
